# Experimental data reported in patent US10471028B2, “Small molecule efflux pump inhibitors” (UNIVERSITY OF ROCHESTER, priority 2014, dated 2019).
# System: A. baumannii strain 98-37-09
# Assay: Cellular accumulation of minocycline (HPLC, triple-quadrupole MS)
# Assay type: cell-based, Acinetobacter baumannii
# Details: human serum with 0.5 μg mL^−1 minocycline plus test compound (0.5×MEC, 1×MEC), 48 hours
# Experimental: High pressure liquid chromatography and triple-quadrupole mass spectrometry were used to measure the A. baumannii intracellular levels of minocycline during growth in human serum in the absence and presence of each putative efflux pump inhibitor. […] Cultures were incubated for 48 hours with shaking, at which point an aliquot was removed, serially diluted, and plated to determine the number of viable CFU per mixture. The remainder of the cells were pelleted by centrifugation at 900×g at 4° C., washed twice in PBS, mechanically lysed with a FastPrep cell disrupter (MP Biomedicals, Santa Ana, Calif.) for 20 seconds at 5 m s^−1 and the cellular debris was pelleted via centrifugation at 900×g and 4° C. The amount of minocycline present within the supernatant of ruptured cells was measured. Briefly, doxycycline (0.5 μg mL^−1) was first added to each supernatant to serve as an internal control to account for sample-to-sample preparation variability. The supernatant was then combined with acetonitrile (ACN) at a 1:10 ratio and centrifuged at 16,000×g, at 4° C., to collect minocycline and doxycycline. […] residual liquid was evaporated in a speed vacuum for 2 hours at 8,000×g. To quantify the amount of antibiotics retained, sample materials were suspended in 50% acetonitrile, filtered through a 0.2 μm low protein binding hydrophilic membrane (Millipore, Billerica, Mass.) then separated on Shimadzu high performance liquid chromatography instrument (Fisher Scientific) using a BetaBasic C18 reverse phase column (Thermo Scientific). Separation was carried out with two mobile phase solutions consisting of solution (A) water with 0.1% formic acid and solution (B) 100% ACN. The gradient profile of the chromatography runs was as follows: from 0 to 0.1 min 8% solution B, ramp step wise (37% to 60% solution B) from 0.1 to 6.5 min then holding for one minute before ramping down from 60% to 10% from 7.5 to 8 min. This was followed a hold at 10% solution B for one minute. […] The column was equilibrated in 8% solution B at 40° C. and the flow rate was set to 0.2 mL min^−1. Mass spectrometry analysis of fractions was carried out using a Thermo TSQ Quantum Ultra triple quadrupole mass spectrometer (Fisher Scientific). Data were analyzed using Xcalibur software (Thermo Scientific); the following parameters were used to detect minocycline and the internal control doxycycline: 458.208 m/z→282.971 m/z (collision energy=43, tube lens=119) for minocycline and 445.144 m/z→266.900 m/z (collision energy=39, tube lens=127) for doxycycline. Analysis of the raw data was conducted by using the area under the curve calculations with the Genesis algorithm to determine the concentration in each sample. The difference between the peak intensity and the y intercept of pre-established minocycline and doxycycline standard curves was divided by the slope of the standard curve to quantify the amount of minocycline within each sample. The total concentration of minocycline within each cell was calculated by normalizing to the number of cells within each corresponding culture.
row,SMILES,Minocylcine Per Cell (femtomoles cell^−1)
1,C/C(=N\NC(=O)c1ccccc1F)c1ccccc1O [ST033061],1.96E−04 femtomoles cell^−1
2,N#Cc1c(/N=C/c2ccc([N+](=O)[O-])o2)sc2c1CCCC2 [ST033065],2.06E−05 femtomoles cell^−1
3,O=C(N/N=C/c1ccc2c(c1)OCO2)c1ccccc1O [ST033341],3.39E−05 femtomoles cell^−1
4,Cc1cccc(N(CC(=O)Nc2ccc(Cc3ccncc3)cc2)S(=O)(=O)c2ccccc2)c1 [ST034014],5.46E−04 femtomoles cell^−1
5,COc1ccc(C2N(Cc3ccccc3)CCN2Cc2ccccc2)cc1 [ST036291],5.5E−05 femtomoles cell^−1
6,COC(=O)CCC(=O)Nc1ccc(S(N)(=O)=O)cc1 [ST040289],8.38E−04 femtomoles cell^−1
7,Cc1ccc(C2N(Cc3ccccc3)CCCN2Cc2ccccc2)o1 [ST048001],1.99E−04 femtomoles cell^−1
8,COc1ccc2c(c1)CCC(C)N2S(=O)(=O)c1ccc(C2CNC(=O)C2)cc1 (stereo not shown) [ST058899],1.08E−04 femtomoles cell^−1

# System: A. baumannii strain 98-37-09
# Assay: MEC determination: potentiation of minocycline toward serum grown A. baumannii
# Assay type: cell-based, Acinetobacter baumannii
# Details: 1×MEC of compound plus minocycline in serum, versus minocycline alone; plating
# Experimental: The TimTec ActiProbe-25K diversity-set and Natural Product compound libraries (29,900 compounds total; TimTec, Newark, Del.) were initially screened for putative efflux pump inhibitors by identifying compounds that potentiated the antimicrobial property of a sub-inhibitory concentration of minocycline toward A. baumannii grown in human serum. To do so, A. baumannii strain 98-37-09 was grown for 16 hours in LB medium at 37° C. on a rotary shaker at 225 rpm. Approximately 1×10^5 CFU were then transferred to individual wells of a 96-well round-bottom plate (Corning Costar, Tewksbury, Mass.) containing 100 μL of human serum supplemented with of minocycline (0.5 μg mL^−1; 0.5× minimum inhibitory concentration in serum) and individual members of the Timtec ActiProbe or Natural product library (50 μM). Plates were then incubated at 37° C. for 48 hours. Growth was measured as a function of turbidity. Putative efflux pump inhibitors were identified as compounds that inhibited A. baumannii growth in human serum containing minocycline and were subsequently retested in triplicate, as indicated above. Untreated A. baumannii grown in serum supplemented with minocycline+/−PAβN served as positive and negative controls, respectively. […] Repeat testing in which well constituents were serial diluted and plated on LB agar plates validated that 85 compounds did indeed limit A. baumannii growth in serum supplemented with minocycline, reducing the number of viable colony forming units between 2-6 log cfu in comparison to minocycline alone treated cells.
# The MEC was defined as the lowest concentration of test compound required to inhibit the growth of A. baumannii in serum in the presence of 0.5 μg ml^−1 minocycline. Plating confirmed that addition of 1×MEC of each compound elicited ≥1.9-log reduction in A. baumannii cells grown in serum supplemented with minocycline alone (see Table 1).
row,SMILES,Log-reduction Colony Forming Units (ml^−1)
1,C/C(=N\NC(=O)c1ccccc1F)c1ccccc1O [ST033061],2.18 log
2,N#Cc1c(/N=C/c2ccc([N+](=O)[O-])o2)sc2c1CCCC2 [ST033065],2.44 log
3,O=C(N/N=C/c1ccc2c(c1)OCO2)c1ccccc1O [ST033341],2.42 log
4,Cc1cccc(N(CC(=O)Nc2ccc(Cc3ccncc3)cc2)S(=O)(=O)c2ccccc2)c1 [ST034014],2.37 log
5,COc1ccc(C2N(Cc3ccccc3)CCN2Cc2ccccc2)cc1 [ST036291],3.31 log
6,COC(=O)CCC(=O)Nc1ccc(S(N)(=O)=O)cc1 [ST040289],4.32 log
7,Cc1ccc(C2N(Cc3ccccc3)CCCN2Cc2ccccc2)o1 [ST048001],7.06 log
8,COc1ccc2c(c1)CCC(C)N2S(=O)(=O)c1ccc(C2CNC(=O)C2)cc1 (stereo not shown) [ST058899],6.21 log

# Same assay, conditions: lowest concentration inhibiting growth in 100% human serum with 0.5 μg ml^−1 minocycline, 48 hr
row,SMILES,MEC
1,C/C(=N\NC(=O)c1ccccc1F)c1ccccc1O [ST033061],2 µg/mL
2,N#Cc1c(/N=C/c2ccc([N+](=O)[O-])o2)sc2c1CCCC2 [ST033065],2 µg/mL
3,O=C(N/N=C/c1ccc2c(c1)OCO2)c1ccccc1O [ST033341],2 µg/mL
4,Cc1cccc(N(CC(=O)Nc2ccc(Cc3ccncc3)cc2)S(=O)(=O)c2ccccc2)c1 [ST034014],2 µg/mL
5,COc1ccc(C2N(Cc3ccccc3)CCN2Cc2ccccc2)cc1 [ST036291],2 µg/mL
6,COC(=O)CCC(=O)Nc1ccc(S(N)(=O)=O)cc1 [ST040289],4 µg/mL
7,Cc1ccc(C2N(Cc3ccccc3)CCCN2Cc2ccccc2)o1 [ST048001],32 µg/mL
8,COc1ccc2c(c1)CCC(C)N2S(=O)(=O)c1ccc(C2CNC(=O)C2)cc1 (stereo not shown) [ST058899],64 µg/mL

# System: human HepG2 cells
# Assay: MTT cell viability (cytotoxicity) assay
# Details: not given
# Experimental: To distinguish putatively non-toxic from human cytotoxic compounds, conventional 3-(4,5-dimethylthiazol-2yl)-2,5-diphenyltetrazolium bromide (MTT) cell viability assays (American Type Culture Collection, Manassas, Va.) were performed for each compound of interest at 1× and 4× their MEC. Briefly, human HepG2 cells were grown to approximately 1×10^6 cells per well in Dulbecco's Modified Eagle Media supplemented with 10% fetal bovine serum (Invitrogen, Carlsbad, Calif.) then treated with 1× or 4× the MEC of the indicated […] Cell viability was measured following the addition of the tetrazolium salt (MTT) as per the manufacturer's recommendations; cells challenged with 50 ug ml^−1 Mitomycin C (Sigma Aldrich) and mock-treated cells served as positive and negative controls, respectively.
row,SMILES,% Viability
1,C/C(=N\NC(=O)c1ccccc1F)c1ccccc1O [ST033061],77.58%
2,N#Cc1c(/N=C/c2ccc([N+](=O)[O-])o2)sc2c1CCCC2 [ST033065],75.6%
3,O=C(N/N=C/c1ccc2c(c1)OCO2)c1ccccc1O [ST033341],75.88%
4,Cc1cccc(N(CC(=O)Nc2ccc(Cc3ccncc3)cc2)S(=O)(=O)c2ccccc2)c1 [ST034014],84.27%
5,COc1ccc(C2N(Cc3ccccc3)CCN2Cc2ccccc2)cc1 [ST036291],75.74%
6,COC(=O)CCC(=O)Nc1ccc(S(N)(=O)=O)cc1 [ST040289],78.8%
7,Cc1ccc(C2N(Cc3ccccc3)CCCN2Cc2ccccc2)o1 [ST048001],82.72%
8,COc1ccc2c(c1)CCC(C)N2S(=O)(=O)c1ccc(C2CNC(=O)C2)cc1 (stereo not shown) [ST058899],80.69%

# System: A. baumannii strain 98-37-09
# Assay: Potentiation of ciprofloxacin toward serum grown A. baumannii
# Assay type: cell-based, Acinetobacter baumannii
# Details: 100% human serum, 0.125 μg ml^−1 ciprofloxacin, 1× or 2× MEC, 48 hour, growth inhibition
# Text: As a means to further prioritize non-toxic compounds of interest based on their therapeutic promise, it was considered that broad spectrum antimicrobial efflux pump inhibitors may be more clinically valuable than narrow-spectrum agents that only potentiate the activity of a limited number of antibiotics or that display activity toward a single bacterial species. […] To do so, 1×10^5 A. baumannii strain 98-37-09 were inoculated into individual wells of microtiter plates containing 100% human serum supplemented with 0.125 μg ml^−1 ciprofloxacin and 0, 1×, or 2× the compound's MEC, as defined by the lowest concentration needed to potentiated minocycline's antimicrobial effects (above). Plates were incubated for 48 hour at which point each compound's ability to potentiate ciprofloxacin was measured, as growth inhibition.
row,SMILES,Potentiate Ciprofloxacin A. baumannii
1,C/C(=N\NC(=O)c1ccccc1F)c1ccccc1O [ST033061],No
2,N#Cc1c(/N=C/c2ccc([N+](=O)[O-])o2)sc2c1CCCC2 [ST033065],No
3,O=C(N/N=C/c1ccc2c(c1)OCO2)c1ccccc1O [ST033341],No
4,Cc1cccc(N(CC(=O)Nc2ccc(Cc3ccncc3)cc2)S(=O)(=O)c2ccccc2)c1 [ST034014],No
5,COc1ccc(C2N(Cc3ccccc3)CCN2Cc2ccccc2)cc1 [ST036291],No
6,COC(=O)CCC(=O)Nc1ccc(S(N)(=O)=O)cc1 [ST040289],No
7,Cc1ccc(C2N(Cc3ccccc3)CCCN2Cc2ccccc2)o1 [ST048001],No
8,COc1ccc2c(c1)CCC(C)N2S(=O)(=O)c1ccc(C2CNC(=O)C2)cc1 (stereo not shown) [ST058899],No
